Results as given in patent publication US11707440B2 (priority 2017, dated 2023).
Values joined by “and” are separate entries in the source; they are usually repeats but may differ in a detail not shown here. Identical values can stand only once. “Also recorded” adds a separate entry of the source. Like-named read-outs stand apart in the source and are kept apart here. Marks after values point to notes of the source that are not given here.

Legend:
[1] = for Stock solution stability: stock solutions
Text: This example provides an LC-MS/MS method for the determination of ketamine and norketamine in sodium heparin human plasma using ketamine-d4 and norketamine-d4 as the respective internal standards (IS).

[2] = test system: adult female Sprague Dawley rats, PCG/RSC; conditions: 3 hours after a single intraperitoneal injection (Jevtovic-Todorovic 2000); cited from earlier work
[3] = test system: NMDA receptor; conditions: cited from earlier work
[4] = test system: female Sprague-Dawley rats, PCG/RSC of the brain; assay: Single dose neurotoxicity study, intranasal instillation; conditions: for Clinical observation: Abnormal respiration / Clinical observation: Ataxia / Clinical observation: Catalepsy / Clinical observation: Chromodacryorrhea / Clinical observation: Decreased general activity / Clinical observation: Decubitus / Clinical observation: Increased general activity / Clinical observation: Narrowed palpebral fissure / Clinical observation: Piloerection / Clinical observation: Salivation (out of normal) / Clinical observation: audible respiration / Clinical observation: bradypnoea: single dose intranasal
Protocol: Esketamine HCl was instilled intranasally at doses of 0 (vehicle), 36, 54 or 72 mg (expressed as esketamine base) to female rats on a single day. The dose levels were obtained by 2, 3 or 4 subsequent intranasal instillations, respectively, into both nostrils at a volume of 50 μL per nostril. At each instillation, the second nostril was dosed immediately after the first nostril. The interval between subsequent instillations into both nostrils was 5 minutes.
The vehicle control group received 4 subsequent intranasal instillations of the vehicle into both nostrils (50 μL per nostril) with 5-minute intervals.
The injection volume was 5 mL/kg.
The vehicle- and the 36 and 54 mg-dosed groups consisted of 24 animals per group, while the 72 mg-dosed and positive control groups involved 30 animals per group. Four satellite animals were added to the esketamine HCl-dosed groups of main study animals for toxicokinetic (TK) purposes. In these animals the plasma exposure to esketamine was measured on the day of dosing at various time points up to and including 24 hours after the first instillation.
Prior to the perfusion, rats were anesthetized with isoflurane. After injection of 0.1 ml heparin, the blood of the rat was flushed out with a physiological saline solution by intraarterial insertion of a needle in the abdominal aorta. Thereafter the rat was perfused with glutaraldehyde 3% in potassium phosphate 0.09M and 1.4% sucrose. Due to logistic constraints at maximum 30 animals could undergo the whole-body perfusion procedure on a given day. Therefore, a staggered start of treatment was applied to all 5 groups of main study animals. Consequently, subgroups of 4 main study animals of the vehicle- and 36 and 54 mg-dosed groups, and 5 main study animals of the 72 mg-dosed and positive control groups, were dosed on 6 consecutive days, respectively.
The vehicle control, positive control, and esketamine HCl-dosed animals were sacrificed at either 48 hours (i.e., the first 12 or 15 rats per group) or 96 hours after the dose administration time (i.e., the last 12 or 15 rats per group). The brain tissue of the vehicle control-, positive control- and esketamine HCl-treated rats were processed at the same time and handled in the same way in batches of 4 or 5 animals per group.
(§1) Furthermore, clinical observations were recorded for the esketamine HCl-dosed rats on the day of dosing at 0 till 5 minutes, 15 and 30 minutes, and at 1, 2, 4, 6 hours post-dose, at the end of the working day and at 24 hours after the last instillation in the single dose study and on the first day of dosing, after one week and towards the end of the dosing period in the repeated dose study. Body weight and body weight gain were measured daily. Food consumption was measured weekly in the repeated dose study.
(§2) On the day of terminal kill, a complete physical examination was performed on the rats in fasted condition and body weight was recorded. The surviving animals were anaesthetized by inhalation of an isoflurane (IsoFlo® Zoetis, Belgium)/oxygen mixture and killed by exsanguination via the carotid artery. […] All terminally killed rats or those killed pre-terminally were perfused with 4% paraformaldehyde in the single dose study and with glutaraldehyde 3% in potassium phosphate buffer 0.09 M with 1.4% sucrose in the repeated dose study.
(§3) Brain tissue was sampled and processed routinely. The trimmed and embedded tissue was sectioned and stained with hematoxylin-eosin (HE). Histoprocessing and staining were carried out in three batches of 4 animals per group (each batch thus containing 4 animals from vehicle control-, positive control- and the three esketamine HCl-treated groups). In the single dose study duplicate brain sections were stained with Fluoro-Jade (FJ).
All tissues showing gross abnormalities were examined macroscopically.

[5] = test system: female Sprague-Dawley rats, PCG/RSC of the brain; assay: 14-day repeated dose neurotoxicity study, intranasal instillation; conditions: for Clinical observation: Abnormal respiration / Clinical observation: Ataxia / Clinical observation: Chromodacryorrhea / Clinical observation: Decreased general activity / Clinical observation: Decubitus / Clinical observation: Increased general activity / Clinical observation: Salivation (out of normal) / Clinical observation: audible respiration / Clinical observation: bradypnoea: 14 days
Protocol: Esketamine HCl was administered into each nostril of female rats at a volume of 50 μl per nostril either once, twice or thrice daily by intranasal instillation for 14 consecutive days at doses of 0 (vehicle), 18, 36 or 54 mg/day. At each instillation, the second nostril was dosed immediately after the first nostril. The interval between subsequent instillations into both nostrils was 5 minutes when dosed 2 or 3 times per day.
The vehicle control group received 3 subsequent intranasal instillations of the vehicle into both nostrils (50 μL per nostril) with 5-minute intervals for 14 consecutive days.
The positive control group received a single subcutaneous injection of (+)MK-801 at 48 hours prior to the necropsy of the vehicle control and esketamine HCl-treated animals.
Each group of main study animals consisted of 12 female rats. Four satellite animals were added to the esketamine HCl-dosed groups of main study animals for TK purposes. The plasma exposure to esketamine was measured in these animals on the first and the last day of dosing at various time points up to and including 24 hours after the first instillation.
Due to logistic constraints associated with the whole body perfusion procedure of the animals at necropsy, a staggered start was applied to the study. Consequently, all 5 groups of main study animals were divided into three subgroups of 4 animals each. For each of these subgroups treatment started on a different day. The perfusion procedure is the is the same as described for the single dose study.
All vehicle- and esketamine HCl-treated animals were sacrificed at 48 hours after the last instillation. […] The brain tissue of the vehicle control-, positive control- and esketamine HCl-treated rats were processed at the same time and handled in the same way in batches of 4 animals per group.
as §1, §2, §3
All tissues showing gross abnormalities were examined […]. Histopathological examination was performed on 7 levels of brain tissue according to Bolon (2013. Toxicol. Pathol. 41(7), 1028-1048) from the vehicle control-, positive control-, and high dose esketamine HCl-treated groups in the single dose study, and in all groups in the repeated dose study.

[6] = Maximum solubility of esketamine HCl; conditions: room temperature, pH 4.5; factor 1.15
Protocol: The clinical investigational product is an aqueous solution of the drug substance, esketamine hydrochloride (HCl). This formulation is administered intranasally to patients using a dual nasal spray device, which delivers one spray into each nostril. […] The formulation was stored at 37° C. for stability reasons until dosing.

CNC1(c2ccccc2Cl)CCCCC1=O (racemic) [ketamine, reference compound]
QC sample freeze/thaw stability ([1]; freeze (−20° C.)/thaw (ice-water bath)): 3 freeze (−20° C.)/thaw (ice-water bath) cycles
QC sample freeze/thaw stability ([1]; freeze (−20° C.)/thaw (room temperature)): 3 freeze (−20° C.)/thaw (room temperature) cycles
QC sample bench-top stability ([1]; human plasma, room temperature): 68.5 hours at room temp
QC sample long-term storage stability ([1]; human plasma, −20° C.): 1552 days at −20 °C
Processed sample stability ([1]; room temperature): 146.5 hours at room temperature
Whole Blood Stability ([1]; room temperature and ice-water bath (0-4° C.)): 120 minutes at room temperature and in an ice-water bath
Stock solution stability (spike solutions) ([1]; spike solutions, −20° C.): 610 days at −20 °C for ketamine/norketamine spike solutions
Stock solution stability ([1]; room temperature under white light): 6 h
Stock solution stability ([1]; −20° C.): 15100 h
ED50-value for the induction of neuronal vacuolation in the PCG/RSC [2]: 47.5 mg/kg body weight

(+)MK-801 maleate
Potency of the (+)-enantiomer relative to the (−)-enantiomer [3]: 7 times

CN[C@]1(c2ccccc2Cl)CCCCC1=O.Cl [esketamine HCl, (S)-2-(2-chlorophenyl)-2-(methylamino)cyclohexanone hydrochloride]
Duration of severely decreased activity with decubitus, bradypnea, ptosis and catalepsy (anesthesia) ([4]; 36 mg): 15 to 30 min
Clinical observation: Abnormal respiration ([4]; 36 mg): 22/24***
Clinical observation: Ataxia ([4]; 36 mg): 24/24***
Clinical observation: Catalepsy ([4]; 36 mg): 20/24***
Clinical observation: Chromodacryorrhea ([4]; 36 mg): 0/24
Clinical observation: Decreased general activity ([4]; 36 mg): 23/24***
Clinical observation: Decubitus ([4]; 36 mg): 23/24***
Clinical observation: Increased general activity ([4]; 36 mg): 24/24***
Clinical observation: Narrowed palpebral fissure ([4]; 36 mg): 7/24**
Clinical observation: Piloerection ([4]; 36 mg): 0/24
Clinical observation: Salivation (out of normal) ([4]; 36 mg): 23/24***
Clinical observation: audible respiration ([4]; 36 mg): 10/24***
Clinical observation: bradypnoea ([4]; 36 mg): 22/24***
Clinical observation: Abnormal respiration ([4]; 54 mg): 22/24***
Clinical observation: Ataxia ([4]; 54 mg): 24/24***
Clinical observation: Catalepsy ([4]; 54 mg): 23/24***
Clinical observation: Chromodacryorrhea ([4]; 54 mg): 0/24
Clinical observation: Decreased general activity ([4]; 54 mg): 23/24***
Clinical observation: Decubitus ([4]; 54 mg): 23/24***
Clinical observation: Increased general activity ([4]; 54 mg): 24/24***
Clinical observation: Narrowed palpebral fissure ([4]; 54 mg): 10/24***
Clinical observation: Piloerection ([4]; 54 mg): 0/24
Clinical observation: Salivation (out of normal) ([4]; 54 mg): 24/24***
Clinical observation: audible respiration ([4]; 54 mg): 3/24
Clinical observation: bradypnoea ([4]; 54 mg): 21/24***
Duration of ataxia (and hyperactivity) after the decrease in activity subsided ([4]; 54 mg, hydrochloride): 1.5 to 3 h and 1 to 3 h
Duration of severely decreased activity with decubitus, bradypnea, ptosis and catalepsy (anesthesia) ([4]; 54 mg, hydrochloride): 30 minutes to one hour and 30 minutes to an hour
Duration of ataxia (and hyperactivity) after the decrease in activity subsided ([4]; 72 mg): up to 3 hours or longer
Clinical observation: Abnormal respiration ([4]; 72 mg): 30/30***
Clinical observation: Catalepsy ([4]; 72 mg): 30/30***
Clinical observation: Chromodacryorrhea ([4]; 72 mg): 0/30
Clinical observation: Decreased general activity ([4]; 72 mg): 30/30***
Clinical observation: Decubitus ([4]; 72 mg): 30/30***
Clinical observation: Increased general activity ([4]; 72 mg): 29/30***
Clinical observation: Narrowed palpebral fissure ([4]; 72 mg): 22/30***
Clinical observation: Piloerection ([4]; 72 mg): 0/30
Clinical observation: Salivation (out of normal) ([4]; 72 mg): 29/30***
Clinical observation: audible respiration ([4]; 72 mg): 2/30
Clinical observation: bradypnoea ([4]; 72 mg): 30/30***
Mortality ([4]; single dose 72 mg, within 30 minutes after 4 instillations): two main study animals and two satellite TK animals died
Mortality ([4]; single dose up to 54 mg): No test article related mortality
Brain histopathology (neuronal necrosis, Olney lesions) ([4]; single dose up to 72 mg, 48 and 96 hours post-dose, hydrochloride): no morphological evidence of neuronal degeneration; also recorded: histopathological lesions were absent; also recorded: No signs of neuronal necrosis; also recorded: no neuropathological lesions were observed
Clinical observation: Abnormal respiration ([5]; 18 mg/day intranasal): 2/12
Clinical observation: Ataxia ([5]; 18 mg/day intranasal): 12/12***
Clinical observation: Chromodacryorrhea ([5]; 18 mg/day intranasal): 0/12
Clinical observation: Decreased general activity ([5]; 18 mg/day intranasal): 5/12
Clinical observation: Decubitus ([5]; 18 mg/day intranasal): 0/12
Clinical observation: Increased general activity ([5]; 18 mg/day intranasal): 12/12***
Clinical observation: Salivation (out of normal) ([5]; 18 mg/day intranasal): 12/12***
Clinical observation: audible respiration ([5]; 18 mg/day intranasal): 2/12
Clinical observation: bradypnoea ([5]; 18 mg/day intranasal): 0/12
Clinical observation: Abnormal respiration ([5]; 36 mg/day intranasal): 11/12***
Clinical observation: Ataxia ([5]; 36 mg/day intranasal): 12/12***
Clinical observation: Chromodacryorrhea ([5]; 36 mg/day intranasal): 0/12
Clinical observation: Decreased general activity ([5]; 36 mg/day intranasal): 12/12***
Clinical observation: Decubitus ([5]; 36 mg/day intranasal): 2/12
Clinical observation: Increased general activity ([5]; 36 mg/day intranasal): 12/12***
Clinical observation: Salivation (out of normal) ([5]; 36 mg/day intranasal): 12/12***
Clinical observation: audible respiration ([5]; 36 mg/day intranasal): 6/12**
Clinical observation: bradypnoea ([5]; 36 mg/day intranasal): 11/12***
Clinical observation: Abnormal respiration ([5]; 54 mg/day intranasal): 12/12***
Clinical observation: Ataxia ([5]; 54 mg/day intranasal): 12/12***
Clinical observation: Chromodacryorrhea ([5]; 54 mg/day intranasal): 0/12
Clinical observation: Decreased general activity ([5]; 54 mg/day intranasal): 12/12***
Clinical observation: Decubitus ([5]; 54 mg/day intranasal): 8/12***
Clinical observation: Increased general activity ([5]; 54 mg/day intranasal): 12/12***
Clinical observation: Salivation (out of normal) ([5]; 54 mg/day intranasal): 12/12***
Clinical observation: audible respiration ([5]; 54 mg/day intranasal): 6/12**
Clinical observation: bradypnoea ([5]; 54 mg/day intranasal): 12/12***
Mortality ([5]; up to 54 mg/day for 14 days): No test article related mortality occurred
Brain histopathology (neuronal necrosis, Olney lesions) ([5]; up to 54 mg/day, 48 hours after the last instillation, hydrochloride): no morphological evidence of neuronal degeneration; also recorded: no histopathological lesions were noted; also recorded: No histopathological lesions were found; also recorded: absence of neuronal necrosis
Maximum solubility expressed as base [6]: 180 mg esketamine base/mL
